Results: PMC7187334 (Clinical Pharmacology in Drug Development, 2019)
“Also recorded” adds a separate entry of the source. Marks after values point to notes of the source that are not given here.

Key:
[1] = Phase 1 crossover study: AZD5718 plasma pharmacokinetics; assay type: in vivo, human; conditions: for AUC(0-inf) / AUC(0-t) / half-life / Tmax / Cmax: human, plasma, oral; for AUC(0-inf): AZD5718 AUC0-inf; for AUC(0-t): AZD5718 AUC0-last; for half-life: AZD5718 t1/2 lambda z; for Tmax: AZD5718 tmax, median (range); for Cmax: AZD5718 Cmax
Experimental: The primary objective was to evaluate the pharmacokinetics of oral rosuvastatin when administered alone and in combination with oral AZD5718. […] Each participant received 5 single-dose oral study treatments (A-E), with a minimum washout period of 7 days between each treatment period. Participants were randomly assigned to treatments in the order A, B, C, D, E or B, A, C, D, E. Treatments were: […] […] Participants fasted for at least 10 hours before treatment and for at least 4 hours after treatment. Participants receiving treatment E consumed a high-fat breakfast 30 minutes before treatment. Water was permitted as desired except within 1 hour of administration. […] Doses were taken with 240 mL of water. […] At a minimum, each analytical run included a calibration curve, a matrix blank, a control zero sample (matrix blank containing internal standard), a reagent blank, and duplicate quality control samples at 3 concentrations within the calibration range. […] Both assessments were well within the acceptance criteria. […] The pharmacokinetic analysis set for rosuvastatin included all participants who received both rosuvastatin treatments. […] Statistical analyses were performed by […] using SAS version 9.4. Rosuvastatin pharmacokinetics were analyzed using a mixed-effects model, with log-transformed AUC, AUC0-last, and Cmax as the response variables; treatment sequence, period, and treatment as fixed effects; and participant nested within treatment sequence as a random effect. […] LS mean differences and 90%CIs for the effect of formulation or food for log-transformed variables were back transformed to geometric mean ratios and presented as percentages with 90% CIs.

CYP1A2 = conditions: in vitro; read-out: IC50, CYP1A2 inhibition; cited from earlier work
CYP2C9 = conditions: in vitro; read-out: IC50, CYP2C9 inhibition; cited from earlier work
CYP2D6 = conditions: in vitro; read-out: IC50, CYP2D6 inhibition; cited from earlier work
CYP3A4 and CYP3A5 = conditions: in vitro; UGT 1A1, 1A3, 1A4 glucuronidation also contributes; cited from earlier work
[2] = 200 mg suspension, fasted, n = 10
[3] = 200 mg tablet plus rosuvastatin 10 mg, fasted, n = 12
[4] = 200 mg, arithmetic mean (SD), 200 mg suspension, fasted, n = 10
[5] = 200 mg, arithmetic mean (SD), 200 mg tablet, fasted, n = 10
[6] = 200 mg, arithmetic mean (SD), 200 mg tablet, fed, n = 12
[7] = 200 mg, geometric mean (%CV), 200 mg suspension, fasted, n = 10
[8] = 200 mg, geometric mean (%CV), 200 mg tablet, fasted, n = 10
[9] = 200 mg, geometric mean (%CV), 200 mg tablet, fed, n = 12
[10] = arithmetic mean (SD), 200 mg tablet plus rosuvastatin 10 mg, fasted, n = 12
[11] = geometric mean (%CV), 200 mg tablet plus rosuvastatin 10 mg, fasted, n = 12
[12] = male, 200 mg, geometric mean (%CV), 200 mg suspension, fasted, n = 12
[13] = male, 200 mg, geometric mean (%CV), 200 mg tablet, fasted, n = 12
[14] = male, 200 mg, geometric mean (%CV), 200 mg tablet, fed, n = 12
[15] = male, geometric mean (%CV), 200 mg tablet plus rosuvastatin 10 mg, fasted, n = 12
[16] = tablets after high-fat breakfast relative to fasting

## Cc1cc(-c2ccc(C(=O)[C@@H]3CCCC[C@H]3C(=O)Nc3cnn4c3C(=O)NCC4)cc2)n[nH]1 [AZD5718]
[1]; [2]
  AZD5718 CL/F, arithmetic mean (SD): 93.55 (20.40) ^a L/h
  AZD5718 CL/F, geometric mean (%CV): 91.5 (22.2) ^a L/h
[1]; [3]
  AZD5718 CL/F, arithmetic mean (SD): 127.6 (28.12) L/h
  AZD5718 CL/F, geometric mean (%CV): 124.6 (22.6) L/h
  Tmax: 2.01 h
[1]; 200 mg tablet vs oral suspension, fasted, 90% CI 36%-57%
  AZD5718 Cmax, ratio of geometric LS means: 45%
[1]; 200 mg tablet vs oral suspension, fasted, 90% CI 64%-80%
  AZD5718 AUC0-inf (relative bioavailability), geometric LS mean ratio: 72%
[1]; 200 mg tablet, fasted, n = 10
  AZD5718 CL/F, arithmetic mean (SD): 128.1 (25.63) ^a L/h
  AZD5718 CL/F, geometric mean (%CV): 126.0 (20.1) ^a L/h
[1]; 200 mg tablet, fed (high-fat breakfast) vs fasted, 90% CI 87%-106%
  AZD5718 AUC0-inf (relative bioavailability), geometric LS mean ratio: 96%
[1]; 200 mg tablet, fed vs fasted, 90% CI 63%-95%
  AZD5718 Cmax, geometric LS mean ratio: 77%
[1]; 200 mg tablet, fed, n = 12
  AZD5718 CL/F, arithmetic mean (SD): 136.9 (25.53) L/h
  AZD5718 CL/F, geometric mean (%CV): 134.4 (20.4) L/h
[1]; AZD5718 200 mg tablet plus rosuvastatin 10 mg vs tablet alone
  Effect of rosuvastatin coadministration on AZD5718 pharmacokinetics: unaffected; also recorded: not affected
[1]; AZD5718 tablets
  Between-participant variability (CV) of AUC0-inf and AUC0-last: < 25%
[1]; [4]
  AUC(0-inf): 5 µM·h
  half-life: 13.6 h
[1]; [5]
  AUC(0-inf): 3.62 µM·h
  half-life: 14 h
[1]; [6]
  AUC(0-inf): 3.4 µM·h
  AUC(0-t): 3.27 µM·h
  half-life: 13.7 h
[1]; [7]
  AUC(0-inf): 4.89 µM·h
  half-life: 13.2 h
[1]; [8]
  AUC(0-inf): 3.56 µM·h
  half-life: 13.2 h
[1]; [9]
  AUC(0-inf): 3.33 µM·h
  half-life: 13.5 h
[1]; 200 mg, arithmetic mean (SD), 200 mg suspension, fasted, n = 12
  AUC(0-t): 4.75 µM·h
[1]; 200 mg, arithmetic mean (SD), 200 mg tablet, fasted, n = 12
  AUC(0-t): 3.49 µM·h
[1]; 200 mg, 200 mg suspension, fasted, n = 12
  Tmax: 1 h
[1]; 200 mg, 200 mg tablet, fed, n = 12
  Tmax: 4 h
[1]; [10]
  AUC(0-inf): 3.67 µM·h
  AUC(0-t): 3.55 µM·h
  half-life: 15 h
[1]; [11]
  AUC(0-inf): 3.59 µM·h
  half-life: 13.9 h
[1]; immediate-release tablets relative to oral suspension
  Decrease in AZD5718 Cmax: about 55%
[1]; [12]
  AUC(0-t): 4.65 µM·h
  Cmax: 1170 nM
[1]; [13]
  AUC(0-t): 3.43 µM·h
  Cmax: 530 nM
[1]; [14]
  AUC(0-t): 3.21 µM·h
  Cmax: 409 nM
[1]; male, 200 mg, arithmetic mean (SD), 200 mg suspension, fasted, n = 12
  Cmax: 1250 nM
[1]; male, 200 mg, arithmetic mean (SD), 200 mg tablet, fasted, n = 12
  Cmax: 565 nM
[1]; male, 200 mg, arithmetic mean (SD), 200 mg tablet, fed, n = 12
  Cmax: 427 nM
[1]; [15]
  AUC(0-t): 3.46 µM·h
  Cmax: 545 nM
[1]; male, arithmetic mean (SD), 200 mg tablet plus rosuvastatin 10 mg, fasted, n = 12
  Cmax: 567 nM
[1]; [16]
  Decrease in AZD5718 Cmax: about 23%
  Delay in AZD5718 tmax: about 1 hour
CYP1A2
  IC50: > 20 µM
CYP2C9
  IC50: > 20 µM
CYP2D6
  IC50: > 20 µM
CYP3A4 and CYP3A5
  enzymes involved in metabolism: cytochrome P450 (CYP) 3A4 and CYP3A5 are involved in the metabolism
